Test results from US20250186627A1, “RADIOLABELED COMPOUNDS TARGETING THE PROSTATE-SPECIFIC MEMBRANE ANTIGEN” (PROVINCIAL HEALTH SERVICES AUTHORITY, priority 2022, published 2025).
Each block holds one compound with its values, some of them ahead of it. *1 amine or outer side, *2 acyl side, *3 side chain or, on linkers, in order; H or OH if unused. Where a SMILES comes first, the peptide text is derived from it. [ ]: non-standard residue; d: D form. The star is where a group is joined. ξ: configuration not given here. DOTA = O=C(O)CN1CCN(CC(=O)O)CCN(CC(=O)*)CCN(CC(=O)O)CC1; Butanoyl(4-(4-MeO-phenyl)) = COc1ccc(CCCC(=O)*)cc1; ξAla(9-anthryl) = NC(Cc1c2ccccc2cc2ccccc12)C(=O)O; X2 = O=C(NC(CCCCN*)C(=O)O)NC(CC(F)C(=O)O)C(=O)O; X1 = O=C(C1CCC(CN[*:1])CC1)[*:2]; ξK = NCCCCC(N)C(=O)O

Tested on: NRG-mice bearing LNCaP tumors
Assay: Biodistribution (and PET/SPECT imaging) in NRG-mice bearing LNCaP tumors
Assay type: in vivo
Details: Avg
How it was run: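 LNCaP xenografts (~10 million cells, left dorsal flank) grown 4-6 weeks to 200-600 mm^3 in NRG mice. Tail-vein injection of 4-6 MBq ^68Ga or 18.5 MBq ^177Lu tracer under isoflurane; CT then 10-min static PET or 1-h SPECT. Biodistribution by gamma counting of weighed organs, expressed as %ID/g.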

- Biodistribution: Blood (24 h p.i.): 0.73 % ID/g
- Biodistribution: Bone (24 h p.i.): 0.18 % ID/g
- Biodistribution: Intestine (24 h p.i.): 0.18 % ID/g
- Biodistribution: LNCaP tumor (24 h p.i.): 42.96 % ID/g
- Biodistribution: Liver (24 h p.i.): 0.49 % ID/g
- Biodistribution: Muscle (24 h p.i.): 0.10 % ID/g
- Biodistribution: Salivary gland (24 h p.i.): 0.35 % ID/g
- Biodistribution: Spleen (24 h p.i.): 0.33 % ID/g
- Biodistribution: Urine (24 h p.i.): 19.02 % ID/g
- Biodistribution: kidney (24 h p.i.): 6.06 % ID/g
- Biodistribution: Blood (72 h p.i.): 0.07 % ID/g
- Biodistribution: Bone (72 h p.i.): 0.19 % ID/g
- Biodistribution: Intestine (72 h p.i.): 0.08 % ID/g
- Biodistribution: LNCaP tumor (72 h p.i.): 56.98 % ID/g
- Biodistribution: Liver (72 h p.i.): 0.27 % ID/g
- Biodistribution: Muscle (72 h p.i.): 0.15 % ID/g
- Biodistribution: Salivary gland (72 h p.i.): 0.31 % ID/g
- Biodistribution: Spleen (72 h p.i.): 0.36 % ID/g
- Biodistribution: Urine (72 h p.i.): 4.96 % ID/g
- Biodistribution: kidney (72 h p.i.): 4.30 % ID/g
SMILES: COc1ccc(CCCC(=O)NCC(=O)NC(CCCCNC(=O)CN2CCN(CC(=O)[O-])CCN(CC(=O)[O-])CCN(CC(=O)[O-])CC2)C(=O)NCC2CCC(C(=O)NC(Cc3c4ccccc4cc4ccccc34)C(=O)NCCCCC(NC(=O)NC(CCCC(=O)O)C(=O)O)C(=O)O)CC2)cc1.[177Lu+3] (centres unmarked) [^177Lu-HTK03170, reference compound]

- Biodistribution: Adrenal gland (4 h p.i.): 5.91 % ID/g
- Biodistribution: Blood (4 h p.i.): 24.97 % ID/g
- Biodistribution: Bone (4 h p.i.): 1.49 % ID/g
- Biodistribution: Brain (4 h p.i.): 0.47 % ID/g
- Biodistribution: Fat (4 h p.i.): 2.63 % ID/g
- Biodistribution: Heart (4 h p.i.): 5.42 % ID/g
- Biodistribution: Intestine (4 h p.i.): 1.87 % ID/g
- Biodistribution: LNCaP tumor (4 h p.i.): 21.30 % ID/g
- Biodistribution: Lacrimal gland (4 h p.i.): 1.44 % ID/g
- Biodistribution: Liver (4 h p.i.): 4.26 % ID/g
- Biodistribution: Lungs (4 h p.i.): 10.19 % ID/g
- Biodistribution: Muscle (4 h p.i.): 1.75 % ID/g
- Biodistribution: Pancreas (4 h p.i.): 2.20 % ID/g
- Biodistribution: Salivary gland (4 h p.i.): 4.23 % ID/g
- Biodistribution: Seminal gland (4 h p.i.): 1.53 % ID/g
- Biodistribution: Spleen (4 h p.i.): 2.15 % ID/g
- Biodistribution: Stomach (4 h p.i.): 1.11 % ID/g
- Biodistribution: Testes (4 h p.i.): 3.83 % ID/g
- Biodistribution: Thyroid (4 h p.i.): 4.29 % ID/g
- Biodistribution: Urine (4 h p.i.): 76.61 % ID/g
- Biodistribution: kidney (4 h p.i.): 10.56 % ID/g
- Biodistribution: Adrenal gland (24 h p.i.): 2.39 % ID/g
- Biodistribution: Blood (24 h p.i.): 4.37 % ID/g
- Biodistribution: Bone (24 h p.i.): 0.36 % ID/g
- Biodistribution: Brain (24 h p.i.): 0.09 % ID/g
- Biodistribution: Fat (24 h p.i.): 0.71 % ID/g
- Biodistribution: Heart (24 h p.i.): 1.27 % ID/g
- Biodistribution: Intestine (24 h p.i.): 0.59 % ID/g
- Biodistribution: LNCaP tumor (24 h p.i.): 38.57 % ID/g
- Biodistribution: Lacrimal gland (24 h p.i.): 0.12 % ID/g
- Biodistribution: Liver (24 h p.i.): 1.16 % ID/g
- Biodistribution: Lungs (24 h p.i.): 2.49 % ID/g
- Biodistribution: Muscle (24 h p.i.): 0.40 % ID/g
- Biodistribution: Pancreas (24 h p.i.): 0.62 % ID/g
- Biodistribution: Salivary gland (24 h p.i.): 1.38 % ID/g
- Biodistribution: Seminal gland (24 h p.i.): 0.38 % ID/g
- Biodistribution: Spleen (24 h p.i.): 0.86 % ID/g
- Biodistribution: Stomach (24 h p.i.): 0.48 % ID/g
- Biodistribution: Testes (24 h p.i.): 1.86 % ID/g
- Biodistribution: Thyroid (24 h p.i.): 1.54 % ID/g
- Biodistribution: Urine (24 h p.i.): 28.57 % ID/g
- Biodistribution: kidney (24 h p.i.): 7.55 % ID/g
- Biodistribution: Adrenal gland (72 h p.i.): 2.59 % ID/g
- Biodistribution: Blood (72 h p.i.): 0.42 % ID/g
- Biodistribution: Bone (72 h p.i.): 0.26 % ID/g
- Biodistribution: Brain (72 h p.i.): 0.03 % ID/g
- Biodistribution: Fat (72 h p.i.): 0.39 % ID/g
- Biodistribution: Heart (72 h p.i.): 0.37 % ID/g
- Biodistribution: Intestine (72 h p.i.): 0.15 % ID/g
- Biodistribution: LNCaP tumor (72 h p.i.): 38.46 % ID/g
- Biodistribution: Lacrimal gland (72 h p.i.): 0.07 % ID/g
- Biodistribution: Liver (72 h p.i.): 0.47 % ID/g
- Biodistribution: Lungs (72 h p.i.): 0.69 % ID/g
- Biodistribution: Muscle (72 h p.i.): 0.11 % ID/g
- Biodistribution: Pancreas (72 h p.i.): 0.17 % ID/g
- Biodistribution: Salivary gland (72 h p.i.): 0.55 % ID/g
- Biodistribution: Seminal gland (72 h p.i.): 0.15 % ID/g
- Biodistribution: Spleen (72 h p.i.): 0.83 % ID/g
- Biodistribution: Stomach (72 h p.i.): 0.18 % ID/g
- Biodistribution: Testes (72 h p.i.): 0.92 % ID/g
- Biodistribution: Thyroid (72 h p.i.): 0.65 % ID/g
- Biodistribution: Urine (72 h p.i.): 4.51 % ID/g
- Biodistribution: kidney (72 h p.i.): 3.53 % ID/g
- Biodistribution: Adrenal gland (120 h p.i.): 1.39 % ID/g
- Biodistribution: Blood (120 h p.i.): 0.14 % ID/g
- Biodistribution: Bone (120 h p.i.): 0.14 % ID/g
- Biodistribution: Brain (120 h p.i.): 0.02 % ID/g
- Biodistribution: Fat (120 h p.i.): 0.22 % ID/g
- Biodistribution: Heart (120 h p.i.): 0.22 % ID/g
- Biodistribution: Intestine (120 h p.i.): 0.14 % ID/g
- Biodistribution: LNCaP tumor (120 h p.i.): 45.01 % ID/g
- Biodistribution: Lacrimal gland (120 h p.i.): 0.12 % ID/g
- Biodistribution: Liver (120 h p.i.): 0.30 % ID/g
- Biodistribution: Lungs (120 h p.i.): 0.30 % ID/g
- Biodistribution: Muscle (120 h p.i.): 0.09 % ID/g
- Biodistribution: Pancreas (120 h p.i.): 0.11 % ID/g
- Biodistribution: Salivary gland (120 h p.i.): 0.34 % ID/g
- Biodistribution: Seminal gland (120 h p.i.): 0.27 % ID/g
- Biodistribution: Spleen (120 h p.i.): 1.45 % ID/g
- Biodistribution: Stomach (120 h p.i.): 0.37 % ID/g
- Biodistribution: Testes (120 h p.i.): 0.67 % ID/g
- Biodistribution: Thyroid (120 h p.i.): 0.39 % ID/g
- Biodistribution: Urine (120 h p.i.): 3.80 % ID/g
- Biodistribution: kidney (120 h p.i.): 2.04 % ID/g
SMILES: COc1ccc(CCCC(=O)NCC(=O)NC(CCCCNC(=O)CN2CCN(CC(=O)[O-])CCN(CC(=O)[O-])CCN(CC(=O)[O-])CC2)C(=O)NCC(=O)NCC2CCC(C(=O)NC(Cc3c4ccccc4cc4ccccc34)C(=O)NCCCCC(NC(=O)NC(CC(F)C(=O)O)C(=O)O)C(=O)O)CC2)cc1.[177Lu+3] (centres unmarked) [^177Lu-CCZ02008] ({Butanoyl(4-(4-MeO-phenyl))}-G[ξK](DOTA)G[X1][ξAla(9-anthryl)]-X2)
